What all share (format): cell-based
Experiment [1] has as its system Wnt activity (SW480 colon carcinoma cells stably expressing the Sp5-Luc reporter gene). The experiment in a line: Sp5-Luc reporter gene screening assay for Wnt activity in SW480 cells. As to conditions: Homo sapiens, 42 h incubation, luminescence. A digest of the protocol:
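SW480 cells stably carrying an Sp5 promoter (eight TCF/LEF sites)-luciferase reporter were plated overnight in 10% FCS medium. BrightGlo luminescence was normalised to DMSO wells, and IC50 was obtained by four-parameter fit.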
In general terms: A reporter such as luciferase makes a cellular process visible.

For experiment [2], the system named is primary human mesenchymal stem cells (hMSCs). In words: Chondrogenesis induction screen in primary human mesenchymal stem cells. The following applies: 6 days, chondrogenic nodules, dose range 10-2700 nM. The procedure: The above synthesized compounds were screened using primary human mesenchymal stem cells (hMSCs) to determine their ability to induce chondrogenesis (process by which cartilage is developed).
Primary human mesenchymal stem cells (hMSCs) were purchased from Lonza (Walkersville, Md.) and expanded in Mesenchymal Stem Cell Growth Media (Lonza). Cells between passage 3 and 6 were used for the experiments.
Each compound was dissolved in DMSO as a 10 mM stock and used to prepare compound source plates. Serial dilution (1:3, 6-point dose-response curves from 2700 nM to 10 nM) and compound transfer was performed using the ECHO 550 (Labcyte, Sunnyvale, Calif.) into 96-well clear bottom assay plates (Greiner Bio-One) with appropriate DMSO backfill for a final DMSO concentration of 0.03%. hMSCs were plated at 20,000 cells/well in 250 μL/well Incomplete Chondrogenic Induction Medium (Lonza; DMEM, dexamethasone, ascorbate, insulin-transferrin-selenium [ITS supplement], gentamycin-amphotericin [GA-1000], sodium pyruvate, proline and L-glutamine). TGF-β3 (10 ng/mL) was used as a positive control for differentiation while negative control wells were treated with 75 nL DMSO for normalization and calculating EC50 values. Cells were incubated at 37° C. and 5% CO2 for 6 days. To image chondrogenic nodules, the cells were fixed using 4% formaldehyde (Electron Microscopy Sciences), and stained with 2 μg/mL Rhodamine B (Sigma-Aldrich) and 20 μM Nile Red (Sigma-Aldrich) [Johnson K., et.al, A Stem Cell—Based Approach to Cartilage Repair, Science, (2012), 336(6082), 717-721]. The nodules imaged (4 images per well at 4× magnification) by excitation at 531 nm and emission at 625 nm and quantified using the CellInsight CX5 (Thermo Scientific). Number of nodules in each well was normalized to the average of 3 DMSO treated wells on the same plate using Excel (Microsoft Inc.). The normalized averages (fold change over DMSO) of 3 replicate wells for each compound concentration were calculated. Due to solubility limitations of some of the compounds, curve fitting was incomplete leading to inaccurate EC50 determinations.
Using TGF-β3 as a positive control, the concentration of test compounds required to induce equivalent levels of chondrogenesis is reported. In addition, the maximum activity of each compound and the respective dose that each compound reached maximum chondrogenesis activity is reported.

Experiment [3] concerns primary human fibroblasts derived from IPF patients (LL29 cells). The experiment in a line: Inhibition of fibrosis (αSMA) in TGF-β1 treated primary human fibroblasts from IPF patients. As to conditions: Fibroblast, 96 h, TGF-β1 20 ng/mL, 4 days, % αSMA positive cells. In short, it runs like this:
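IPF patient-derived LL29 lung fibroblasts in 1% FBS were treated with compound (11 points, 10 μM to 1.87 nM, 0.1% DMSO) and then 20 ng/mL TGF-β1 for 4 days at 37° C. Fraction of SYTOX-negative cells positive for αSMA was quantified by immunofluorescence imaging and normalized to TGF-β1 controls. EC50 came from non-linear regression over triplicate wells.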

In the case of `Fc1cccc(-c2ccnc3[nH]c(-c4n[nH]c5ccc(-c6cn[nH]c6)cc45)nc23)c1` [Compound 1875, 2-(5-(1H-Pyrazol-4-yl)-1H-indazol-3-yl)-7-(3-fluorophenyl)-3H-imidazo[4,5-b]pyridine], the IC50 (usually the point on the concentration scale where inhibition reaches its midpoint) in experiment [1] was 5 nM. Besides, the “Conc (nM) of Max. activity” value in experiment [2] amounted to 2700 nM. Moreover, the concentration giving a half-maximal response (EC50) (commonly the concentration needed to bring the measured effect to its halfway point) in experiment [3] turned out to be 0.009 nM.

`Oc1cncc(-c2ccc3[nH]nc(-c4nc5c(-c6cccc(F)c6)ccnc5[nH]4)c3c2)c1` [Compound 1885, 5-(3-(7-(3-Fluorophenyl)-3H-imidazo[4,5-b]pyridin-2-yl)-1H-indazol-5-yl)pyridin-3-ol] registered a half-maximal inhibitory concentration (IC50) in experiment [1] of 11 nM. The “Conc (nM) of Max. activity” value in experiment [2] was determined as 100 nM. Besides, in experiment [3], the EC50 turned out to be 0.009 nM.

For the origin of these results see US10280166B2, “2-(1H-indazol-3-yl)-3H-imidazo[4,5-B]pyridine and therapeutic uses thereof” (Samumed, LLC, priority 2014, dated 2019).
